Experimental data reported in ChEMBL document CHEMBL1159355, “New dihydrostilbene derivatives from the leaves of Glycyrrhiza glabra and evaluation of their antioxidant activity” (J Nat Prod, 2003).

Experiment: Antioxidant activity against linolenic acid oxidation assessed as inhibition rate constant for conjugated diene hydroperoxide formation
Assay type: functional

Compound | Activity [×10⁴ /M/s]
CC(C)=CCc1cc(CCc2cc(O)cc(O)c2)ccc1O | 6
CC(C)=CCc1cc(CCc2cc(O)c(CC=C(C)C)c(O)c2)cc(O)c1O | 11
CC(C)=CCc1cc(CCc2cc(O)c(CC=C(C)C)c(O)c2)ccc1O | 7
CC(C)=CCc1cc(CCc2cc(O)cc(O)c2)cc(O)c1O | 9
COc1c(O)cc(CCc2cc(O)cc(O)c2)cc1CC=C(C)C | 8
